We go through five compounds from ChEMBL document CHEMBL4387773, “Identification of potent, selective and orally bioavailable phenyl ((R)-3-phenylpyrrolidin-3-yl)sulfone analogues as RORγt inverse agonists” (Bioorg Med Chem Lett, 2019).

Data set [1] is described as follows: Stability in human liver microsomes assessed as parent compound remaining after 10 mins. Conditions: for remaining at 10 min: liver microsomes, read-out: Stability; for Stability: microsomes, 10 min. Type of data set: ADME, Microsome. (In general: Liver microsomes are vesicles of endoplasmic reticulum, rich in cytochrome P450 enzymes.)
Data set [2] concerns the target T1, Nuclear receptor ROR-gamma (Homo sapiens, UniProt P51449).
T1 sequence (P51449 whole entry): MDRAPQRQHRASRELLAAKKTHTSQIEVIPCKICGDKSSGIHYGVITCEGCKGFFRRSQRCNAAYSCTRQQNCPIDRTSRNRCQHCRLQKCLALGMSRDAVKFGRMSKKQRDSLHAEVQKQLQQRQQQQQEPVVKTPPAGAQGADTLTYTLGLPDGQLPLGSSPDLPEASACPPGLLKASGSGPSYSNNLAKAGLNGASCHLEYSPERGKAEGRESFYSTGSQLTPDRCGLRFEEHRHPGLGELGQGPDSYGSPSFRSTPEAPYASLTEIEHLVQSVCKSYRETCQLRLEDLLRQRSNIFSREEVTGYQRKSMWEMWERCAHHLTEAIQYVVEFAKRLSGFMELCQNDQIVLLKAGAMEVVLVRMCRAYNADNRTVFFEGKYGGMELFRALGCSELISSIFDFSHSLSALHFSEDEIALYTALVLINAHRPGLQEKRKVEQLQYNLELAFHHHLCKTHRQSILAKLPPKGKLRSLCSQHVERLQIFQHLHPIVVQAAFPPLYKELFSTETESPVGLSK
The data set can be described thus: Inverse agonist activity at human Gal4-fused RORgammat LBD (267 to 516 residues) expressed in human Jurkat cells measured after 18 hrs by steady-glo luciferase reporter gene assay. The format is cell-based.

Data set [3] addresses T2, Nuclear receptor subfamily 1 group I member 2 (Homo sapiens, UniProt O75469).
T2 sequence (O75469 whole entry): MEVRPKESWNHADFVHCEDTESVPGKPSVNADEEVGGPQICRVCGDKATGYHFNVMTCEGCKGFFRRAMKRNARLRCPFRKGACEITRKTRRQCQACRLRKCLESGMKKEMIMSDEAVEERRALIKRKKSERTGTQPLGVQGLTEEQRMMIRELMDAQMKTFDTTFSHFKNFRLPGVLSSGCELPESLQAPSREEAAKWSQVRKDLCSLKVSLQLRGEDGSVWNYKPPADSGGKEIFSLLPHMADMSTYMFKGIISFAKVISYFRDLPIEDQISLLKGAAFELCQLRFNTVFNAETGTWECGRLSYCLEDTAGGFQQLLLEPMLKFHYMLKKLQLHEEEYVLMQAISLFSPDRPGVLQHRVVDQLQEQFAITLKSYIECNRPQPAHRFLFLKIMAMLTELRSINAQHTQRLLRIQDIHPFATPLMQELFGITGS
The data set can be described thus: Transactivation of PXR (unknown origin) expressed in human HepG2 cells. Type of data set: cell-based.

The next data set has as its target T3, PXR (Homo sapiens, UniProt O75469).
T3 sequence (O75469 whole entry): T2 sequence (O75469 whole entry)
As to the kind of experiment: (§1) Transactivation of PXR (unknown origin) expressed in human HepG2 cells assessed as maximum receptor activation response relative to control. Type of data set: cell-based. Conditions: human HepG2 cells that express PXR, read-out: %max.

A short description of data set [4]: Stability in mouse liver microsomes assessed as parent compound remaining after 10 mins. Conditions: for remaining at 10 min: liver microsomes, read-out: Stability; for Stability: microsomes, 10 min. The format is ADME, Microsome.
Data set [5] concerns the target T4, Nuclear receptor ROR-alpha (Homo sapiens, UniProt P35398).
T4 sequence (P35398 whole entry): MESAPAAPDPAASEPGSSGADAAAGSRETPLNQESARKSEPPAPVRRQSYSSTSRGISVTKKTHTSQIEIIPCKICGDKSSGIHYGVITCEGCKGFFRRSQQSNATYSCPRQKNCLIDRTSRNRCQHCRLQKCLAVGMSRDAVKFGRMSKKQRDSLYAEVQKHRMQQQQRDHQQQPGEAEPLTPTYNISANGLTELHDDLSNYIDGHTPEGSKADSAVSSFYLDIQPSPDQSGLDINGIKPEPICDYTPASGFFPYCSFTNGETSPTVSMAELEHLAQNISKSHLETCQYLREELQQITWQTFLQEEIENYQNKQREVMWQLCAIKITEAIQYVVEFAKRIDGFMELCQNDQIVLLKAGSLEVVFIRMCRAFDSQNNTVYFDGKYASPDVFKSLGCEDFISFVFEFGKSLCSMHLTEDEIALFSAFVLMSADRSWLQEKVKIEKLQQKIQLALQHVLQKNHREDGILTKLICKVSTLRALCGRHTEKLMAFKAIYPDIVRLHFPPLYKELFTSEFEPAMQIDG
As to the kind of experiment: Inverse agonist activity at human Gal4-fused RORalpha LBD (272 to 556 residues) expressed in human Jurkat cells measured after 18 hrs by steady-glo luciferase reporter gene assay. The format is cell-based. On the technique in general: In a reporter assay the amount or activity of a reporter protein is the signal.

Data set [6] has as its target T5, Nuclear receptor ROR-beta (Homo sapiens, UniProt Q92753).
T5 sequence (Q92753 whole entry): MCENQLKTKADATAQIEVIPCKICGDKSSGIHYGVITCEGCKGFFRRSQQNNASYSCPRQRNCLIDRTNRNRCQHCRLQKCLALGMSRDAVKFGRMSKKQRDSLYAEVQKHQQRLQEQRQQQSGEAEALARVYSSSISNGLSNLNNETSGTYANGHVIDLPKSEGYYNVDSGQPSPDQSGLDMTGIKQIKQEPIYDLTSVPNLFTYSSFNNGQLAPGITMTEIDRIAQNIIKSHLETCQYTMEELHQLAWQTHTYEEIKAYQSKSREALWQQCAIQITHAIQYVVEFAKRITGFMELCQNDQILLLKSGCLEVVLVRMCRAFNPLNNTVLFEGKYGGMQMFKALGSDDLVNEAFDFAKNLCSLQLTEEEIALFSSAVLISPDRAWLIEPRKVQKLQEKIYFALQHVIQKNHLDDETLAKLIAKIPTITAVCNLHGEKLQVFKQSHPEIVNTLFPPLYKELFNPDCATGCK
The data set can be described thus: Inverse agonist activity at human Gal4-fused RORbeta LBD (200 to 559 residues) expressed in human Jurkat cells measured after 18 hrs by steady-glo luciferase reporter gene assay. The format is cell-based.

Data set [7] deals with T6, Oxysterols receptor LXR-alpha (Homo sapiens, UniProt Q13133).
T6 sequence (Q13133 whole entry): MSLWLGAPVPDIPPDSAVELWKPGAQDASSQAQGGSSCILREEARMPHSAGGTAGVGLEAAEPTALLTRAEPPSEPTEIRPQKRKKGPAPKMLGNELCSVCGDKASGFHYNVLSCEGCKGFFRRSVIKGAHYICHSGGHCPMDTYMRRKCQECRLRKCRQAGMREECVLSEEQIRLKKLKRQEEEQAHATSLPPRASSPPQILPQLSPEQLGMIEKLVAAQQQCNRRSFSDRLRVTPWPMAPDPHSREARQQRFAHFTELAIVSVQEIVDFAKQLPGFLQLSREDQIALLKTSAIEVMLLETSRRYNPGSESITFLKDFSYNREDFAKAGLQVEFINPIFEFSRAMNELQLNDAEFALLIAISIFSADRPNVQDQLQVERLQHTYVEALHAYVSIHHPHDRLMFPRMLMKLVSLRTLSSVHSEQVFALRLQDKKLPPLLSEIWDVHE
The data set can be described thus: Transactivation of human GAL4-fused LXRalpha expressed in African green monkey CV1 cells. The format is cell-based.

In data set [8] the target is T7, Oxysterols receptor LXR-beta (Homo sapiens, UniProt P55055).
T7 sequence (P55055 whole entry): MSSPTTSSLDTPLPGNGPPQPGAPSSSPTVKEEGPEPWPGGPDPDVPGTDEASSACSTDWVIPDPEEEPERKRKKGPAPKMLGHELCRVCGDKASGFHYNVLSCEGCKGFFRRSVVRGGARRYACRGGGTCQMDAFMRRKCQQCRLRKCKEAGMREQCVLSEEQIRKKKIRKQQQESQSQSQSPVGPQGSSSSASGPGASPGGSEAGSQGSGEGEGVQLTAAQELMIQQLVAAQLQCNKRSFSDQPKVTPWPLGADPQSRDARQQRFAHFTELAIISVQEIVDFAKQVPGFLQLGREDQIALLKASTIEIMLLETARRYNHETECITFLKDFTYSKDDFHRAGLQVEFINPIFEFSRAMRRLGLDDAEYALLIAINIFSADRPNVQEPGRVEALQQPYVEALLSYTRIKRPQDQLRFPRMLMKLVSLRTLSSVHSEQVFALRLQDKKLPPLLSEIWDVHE
The data set can be described thus: Transactivation of human GAL4-fused LXRbeta expressed in African green monkey CV1 cells. Type of data set: cell-based.

Data set [9] concerns the target T2, Nuclear receptor subfamily 1 group I member 2. Described as §1. Type of data set: cell-based. Conditions: hepg2.

Where only a bound is given, the exact number is not on record here.

The EC50 is the concentration giving half of the maximal effect. Turning to `C[C@]1(C(=O)N2CC[C@](c3ccc(C(F)(C(F)(F)F)C(F)(F)F)cc3)(S(=O)(=O)c3ccc(F)cc3)C2)CC[C@@H](C(=O)O)CC1`, the remaining at 10 min in data set [1] came to 85%; in [4], 100%. The EC50 in data set [2] is 0.776 µM; in data set [3], over 50 µM; in data set [5], over 40 µM; in [6], over 40 µM; in data set [7], over 7.5 µM; in data set [8], over 7.5 µM. Moreover, the Emax at PXR is 18%.

Consider `CS(=O)(=O)C1CCC(C(=O)N2CC[C@](c3ccc(C(F)(C(F)(F)F)C(F)(F)F)cc3)(S(=O)(=O)c3ccc(F)cc3)C2)CC1` (stereo in doubt; 28), for which the remaining at 10 min in data set [1] was found to be 88%; in data set [4] it was 69%. Further, the EC50 in [3] is 1.8 µM; in data set [5] it was over 40 µM; in [6], over 40 µM; in [7], over 7.5 µM; in data set [8], over 7.5 µM. Further, the “%max” value in data set [9] is reported as 29%.

For `C[C@]1(C(=O)N2CC[C@](c3ccc(C(F)(C(F)(F)F)C(F)(F)F)cc3)(S(=O)(=O)c3ccc(F)cc3)C2)CC[C@H](C(=O)O)CC1`, the remaining at 10 min in data set [1] amounted to 80%; in data set [4] it was 95%. The EC50 in data set [2] is 0.056 µM; in data set [3] it was over 50 µM; in [5], over 40 µM; in [6], over 40 µM; in data set [7] it was over 7.5 µM; in data set [8] it was over 7.5 µM. For the same compound, the Emax at PXR is 7%.

Turning to `O=C(O)C1CCC(O)(C(=O)N2CC[C@](c3ccc(C(F)(C(F)(F)F)C(F)(F)F)cc3)(S(=O)(=O)c3ccc(F)cc3)C2)CC1` (stereo in doubt; 13), the Stability in data set [1] was 95%; in [4] it was 98%. Moreover, the EC50 is over 50 µM in data set [3] (hepg2); over 40 µM in [5] (jurkat); over 40 µM in data set [6] (jurkat); over 7.5 µM in [7]; over 7.5 µM in [8]. The “%max” value in data set [9] was found to be 19%.

As to `O=C1NC(=O)C2(CCC(C(=O)N3CC[C@](c4ccc(C(F)(C(F)(F)F)C(F)(F)F)cc4)(S(=O)(=O)c4ccc(F)cc4)C3)CC2)N1` (stereo in doubt; 25), the Stability in data set [1] was 93%; in data set [4], 82%. Moreover, the concentration giving a half-maximal response (EC50) in data set [3] is over 50 µM; in data set [5] (jurkat), over 40 µM; in data set [6] (jurkat), over 40 µM; in data set [7], over 7.5 µM; in data set [8] it was over 7.5 µM. In addition, in data set [9], the “%max” value amounted to 3%.
